Experimental data: BindingDB's records for PubMed 14633714 (Abbott Laboratories, 2003)

Target: Methionine aminopeptidase 1 (Homo sapiens, UniProt P53582)
Test: MetAP Enzyme Activity Assay
Conditions: pH 7.4; 22 °C
Experimental: A coupled enzyme chromogenic assay was developed to measure methionine aminopeptidase activity by monitoring the production of free methionine with L-amino acid oxidase and horseradish peroxidase. Assays were performed in 96-well microtiter plates. The reactions were carried out at room temperature, and absorbance at 450 nm (A450) was measured every 20 s over a period of 20 min using an automatic plate reader (Molecular Devices, CA). The rate in mOD/min, calculated for each well, was converted to nM methionine releases per minute per nM MetAP in the reaction.

IC50	SMILES
2.2 µM	CC(C)CSC[C@@H](N)[C@H](O)C(=O)N[C@@H](C)c1cccc2ccccc12
12 µM	CC(C)SCC[C@@H](N)[C@H](O)C(=O)N[C@@H](C)c1cccc2ccccc12
8.1 µM	CC(C)CSC[C@@H](N)[C@H](O)C(=O)NNC(=O)c1cccc(Cl)c1
57 µM	CC(C)SCC[C@@H](N)[C@H](O)C(=O)NNC(=O)c1cccc(Cl)c1 [N'-[(2S,3R)-3-amino-2-hydroxy-5-(propan-2-ylsulfanyl)pentanoyl]-3-chlorobenzohydrazide]
20 µM	CCSCC[C@@H](N)[C@H](O)C(=O)NNC(=O)c1cccc(Cl)c1 [N'-[(2S,3R)-3-amino-5-(ethylsulfanyl)-2-hydroxypentanoyl]-3-chlorobenzohydrazide]
0.37 µM	CCSCC[C@@H](N)[C@H](O)C(=O)N[C@@H](C)c1cccc2ccccc12 [bestatin-type inhibitor, 4]
63 µM	CCOC(=O)[C@H](C)NC(=O)[C@@H](O)[C@H](N)CCSC [ethyl (2S)-2-[(2S,3R)-3-amino-2-hydroxy-5-(methylsulfanyl)pentanamido]propanoate]
69 µM	CCOC(=O)[C@H](C)NC(=O)[C@@H](O)[C@H](N)CCSCC [ethyl (2S)-2-[(2S,3R)-3-amino-5-(ethylsulfanyl)-2-hydroxypentanamido]propanoate]
66 µM	CCOC(=O)[C@H](C)NC(=O)[C@@H](O)[C@H](N)CSCC(C)C [ethyl (2S)-2-[(2S,3S)-3-amino-2-hydroxy-4-[(2-methylpropyl)sulfanyl]butanamido]propanoate]
